Test system: MV-4-11 cells
Test: Gene expression microarray analysis (Affymetrix PrimeView) and GSEA
Type: cell-based, human
Set-up: RFU PODN (11730768_x_at) / Fold change /veh PODN (11730768_x_at) / RFU LINC00158 (11744669_a_at) / Fold change /veh LINC00158 (11744669_a_at) / RFU DUSP10 (11751237_a_at) / Fold change /veh DUSP10 (11751237_a_at) / RFU ID3 (11757404_x_at) / Fold change /veh ID3 (11757404_x_at) / RFU PLEKHG5 (11737974_s_at) / Fold change /veh PLEKHG5 (11737974_s_at) / RFU LRRC4B (11730491_at) / Fold change /veh LRRC4B (11730491_at) / RFU GIMAP4 (11747438_a_at) / Fold change /veh GIMAP4 (11747438_a_at) / RFU KRT8 (11758183_x_at) / Fold change /veh KRT8 (11758183_x_at) / RFU CNN1 (11734310_a_at) / Fold change /veh CNN1 (11734310_a_at) / RFU VPS37D (11726825_at) / Fold change /veh VPS37D (11726825_at) / RFU C10orf10 (11716522_x_at) / Fold change /veh C10orf10 (11716522_x_at) / RFU KIR2DL2 /// KIR2DL4 /// KIR2DL5A /// KIR2DL5B /// KIR2DS1 /// KIR2DS2 /// KIR2DS3 /// KIR2DS4 /// KIR3DL3 /// KIR3DL3 /// KIR3DS1 (11738374_at) / Fold change /veh KIR2DL2 /// KIR2DL4 /// KIR2DL5A /// KIR2DL5B /// KIR2DS1 /// KIR2DS2 /// KIR2DS3 /// KIR2DS4 /// KIR3DL3 /// KIR3DL3 /// KIR3DS1 (11738374_at) / RFU C1QL1 (11718748_at) / Fold change /veh C1QL1 (11718748_at) / RFU TMPRSS4 (11747572_a_at) / Fold change /veh TMPRSS4 (11747572_a_at) / RFU HAMP (11756126_x_at) / Fold change /veh HAMP (11756126_x_at) / RFU RNFT2 (11725882_a_at) / Fold change /veh RNFT2 (11725882_a_at) / RFU NR4A2 (11747474_a_at) / Fold change /veh NR4A2 (11747474_a_at) / RFU ABCC12 (11746883_a_at) / Fold change /veh ABCC12 (11746883_a_at) / RFU TMEM136 (11760407_x_at) / Fold change /veh TMEM136 (11760407_x_at) / RFU CLDN22 /// WWC2 (11732394_at) / Fold change /veh CLDN22 /// WWC2 (11732394_at) / RFU HLA-DPB1 (11760878_x_at) / Fold change /veh HLA-DPB1 (11760878_x_at) / RFU SPINT1 (11716480_a_at) / Fold change /veh SPINT1 (11716480_a_at) / RFU GAP43 (11754022_s_at) / Fold change /veh GAP43 (11754022_s_at) / RFU A4GNT (11735810_at) / Fold change /veh A4GNT (11735810_at) / RFU PRB3 (11715151_x_at) / Fold change /veh PRB3 (11715151_x_at) / RFU TUBB4B (11761932_at) / Fold change /veh TUBB4B (11761932_at) / RFU CAPN14 (11732068_a_at) / Fold change /veh CAPN14 (11732068_a_at) / RFU TMCC2 (11721928_a_at) / Fold change /veh TMCC2 (11721928_a_at) / RFU IRGQ (11745062_a_at) / Fold change /veh IRGQ (11745062_a_at) / RFU FAM174B (11720279_a_at) / Fold change /veh FAM174B (11720279_a_at) / RFU TMPRSS4 (11748680_a_at) / Fold change /veh TMPRSS4 (11748680_a_at) / RFU FAM212B (11763350_a_at) / Fold change /veh FAM212B (11763350_a_at) / RFU PLEKHG5 (11743358_a_at) / Fold change /veh PLEKHG5 (11743358_a_at) / RFU ZSCAN30 (11745921_a_at) / Fold change /veh ZSCAN30 (11745921_a_at) / RFU CMKLR1 (11741424_a_at) / Fold change /veh CMKLR1 (11741424_a_at) / RFU LOC101060620 /// MAPK8IP1 (11723275_at) / Fold change /veh LOC101060620 /// MAPK8IP1 (11723275_at) / RFU SPTSSB (11747773_x_at) / Fold change /veh SPTSSB (11747773_x_at) / RFU PRSS12 (11739890_at) / Fold change /veh PRSS12 (11739890_at) / RFU BIN1 (11741810_x_at) / Fold change /veh BIN1 (11741810_x_at) / RFU WNT11 (11732464_a_at) / Fold change /veh WNT11 (11732464_a_at) / RFU C10orf10 (11716521_a_at) / Fold change /veh C10orf10 (11716521_a_at) / RFU C5orf56 (11738089_at) / Fold change /veh C5orf56 (11738089_at) / RFU CYB561 (11721691_x_at) / Fold change /veh CYB561 (11721691_x_at) / RFU ANKRD19P (11752326_a_at) / Fold change /veh ANKRD19P (11752326_a_at) / RFU OR2T12 /// OR2T33 /// OR2T8 (11738714_s_at) / Fold change /veh OR2T12 /// OR2T33 /// OR2T8 (11738714_s_at) / RFU VCAN (11748164_a_at) / Fold change /veh VCAN (11748164_a_at) / RFU JSRP1 (11732532_at) / Fold change /veh JSRP1 (11732532_at) / RFU KRTAP10-11 (11738290_x_at) / Fold change /veh KRTAP10-11 (11738290_x_at) / RFU MYO3A (11730013_a_at) / Fold change /veh MYO3A (11730013_a_at) / RFU EBF3 (11725865_a_at) / Fold change /veh EBF3 (11725865_a_at) / RFU CAMK2N1 (11719241_x_at) / Fold change /veh CAMK2N1 (11719241_x_at) / RFU C5orf56 (11738088_a_at) / Fold change /veh C5orf56 (11738088_a_at) / RFU OLFML3 (11715873_a_at) / Fold change /veh OLFML3 (11715873_a_at) / RFU LOC100653217 /// NTM (11731650_a_at) / Fold change /veh LOC100653217 /// NTM (11731650_a_at) / RFU MAPK11 (11762145_a_at) / Fold change /veh MAPK11 (11762145_a_at) / RFU FIZ1 (11724087_x_at) / Fold change /veh FIZ1 (11724087_x_at) / RFU OASL (11726364_x_at) / Fold change /veh OASL (11726364_x_at) / RFU SOX15 (11748057_x_at) / Fold change /veh SOX15 (11748057_x_at) / RFU CD79A (11719716_a_at) / Fold change /veh CD79A (11719716_a_at) / RFU HIST1H1D (11736915_at) / Fold change /veh HIST1H1D (11736915_at) / RFU CASKIN2 (11723855_a_at) / Fold change /veh CASKIN2 (11723855_a_at) / RFU LOC730098 (11760151_x_at) / Fold change /veh LOC730098 (11760151_x_at) / RFU OR4N2 (11742367_at) / Fold change /veh OR4N2 (11742367_at) / RFU PRRT2 (11749266_a_at) / Fold change /veh PRRT2 (11749266_a_at) / RFU SNX32 (11753110_a_at) / Fold change /veh SNX32 (11753110_a_at) / RFU CDHR5 (11726645_a_at) / Fold change /veh CDHR5 (11726645_a_at) / RFU RCAN1 (11760418_a_at) / Fold change /veh RCAN1 (11760418_a_at) / RFU FAM167A (11723789_a_at) / Fold change /veh FAM167A (11723789_a_at) / RFU FAM26E (11764081_at) / Fold change /veh FAM26E (11764081_at) / RFU ISYNA1 (11749810_s_at) / Fold change /veh ISYNA1 (11749810_s_at) / RFU ACY1 (11761880_at) / Fold change /veh ACY1 (11761880_at) / RFU 11764098_at / Fold change /veh 11764098_at / RFU SAMD14 (11745864_x_at) / Fold change /veh SAMD14 (11745864_x_at) / RFU NPB (11741838_a_at) / Fold change /veh NPB (11741838_a_at) / RFU TMPRSS6 (11731388_a_at) / Fold change /veh TMPRSS6 (11731388_a_at) / RFU KRTAP10-2 (11738614_at) / Fold change /veh KRTAP10-2 (11738614_at) / RFU ARHGAP8 /// PRR5-ARHGAP8 (11727945_x_at) / Fold change /veh ARHGAP8 /// PRR5-ARHGAP8 (11727945_x_at) / RFU KRTAP5-7 /// NADSYN1 (11734609_at) / Fold change /veh KRTAP5-7 /// NADSYN1 (11734609_at) / RFU RASL12 (11751679_a_at) / Fold change /veh RASL12 (11751679_a_at) / RFU CDKN2B (11736163_a_at) / Fold change /veh CDKN2B (11736163_a_at) / RFU PRF1 (11729649_at) / Fold change /veh PRF1 (11729649_at) / RFU, ZNF638 /// ZNF638-IT1 / Fold change vs veh, ZNF638 /// ZNF638-IT1 / RFU, PANK3 / Fold change vs veh, PANK3 / RFU, SH3YL1 / Fold change vs veh, SH3YL1 / RFU, ZEB2 / Fold change vs veh, ZEB2 / RFU, NRIP1 / Fold change vs veh, NRIP1 / RFU, PTTG1IP / Fold change vs veh, PTTG1IP / RFU, CAPN2 / Fold change vs veh, CAPN2 / RFU, MED14 / Fold change vs veh, MED14 / RFU, SNORA58 / Fold change vs veh, SNORA58 / RFU, C1orf63 / Fold change vs veh, C1orf63 / RFU, LRRFIP1 / Fold change vs veh, LRRFIP1 / RFU, NDUFAF7 / Fold change vs veh, NDUFAF7 / RFU, SLC12A2 / Fold change vs veh, SLC12A2 / RFU, IBTK / Fold change vs veh, IBTK / RFU, ESF1 / Fold change vs veh, ESF1 / Fold change vs veh, TMEM50B / RFU, TAOK1 / Fold change vs veh, TAOK1 / RFU, ACBD3 / Fold change vs veh, ACBD3 / RFU, TMA16 / Fold change vs veh, TMA16 / RFU, RWDD3 / Fold change vs veh, RWDD3 / RFU, BCAT1 / Fold change vs veh, BCAT1 / RFU, EDEM3 / Fold change vs veh, EDEM3 / RFU, TMEM33 / Fold change vs veh, TMEM33 / RFU, WDR75 / Fold change vs veh, WDR75 / RFU, AHCTF1 / Fold change vs veh, AHCTF1 / RFU, TFRC / Fold change vs veh, TFRC / RFU, ZDHHC17 / Fold change vs veh, ZDHHC17 / RFU, NOM1 / Fold change vs veh, NOM1 / RFU, ARL8B / Fold change vs veh, ARL8B / RFU, ZBTB11 / Fold change vs veh, ZBTB11 / RFU, TAMM41 / Fold change vs veh, TAMM41 / RFU, KIAA1704 /// LOC100996395 / Fold change vs veh, KIAA1704 /// LOC100996395 / RFU, ING1 / Fold change vs veh, ING1 / RFU, TRMT61B / Fold change vs veh, TRMT61B / RFU, FUBP3 / Fold change vs veh, FUBP3 / RFU, TP53 / Fold change vs veh, TP53 / RFU, TNKS2 / Fold change vs veh, TNKS2 / RFU, ZFP14 / Fold change vs veh, ZFP14 / RFU, ACTR2 / Fold change vs veh, ACTR2 / RFU, PPP3R1 / Fold change vs veh, PPP3R1 / RFU, PIK3R1 / Fold change vs veh, PIK3R1 / RFU, HNRNPA1 / Fold change vs veh, HNRNPA1 / RFU, RNF170 / Fold change vs veh, RNF170 / RFU, ZNF28 / Fold change vs veh, ZNF28 / RFU, RNGTT / Fold change vs veh, RNGTT / RFU, OGT / Fold change vs veh, OGT / RFU, BRD1 / Fold change vs veh, BRD1 / RFU, MARS / Fold change vs veh, MARS / RFU, ZNF655 / Fold change vs veh, ZNF655 / RFU, FAHD1 / Fold change vs veh, FAHD1 / RFU, BDP1 / Fold change vs veh, BDP1 / RFU, LRRCC1 / Fold change vs veh, LRRCC1 / RFU, ARID1A / Fold change vs veh, ARID1A / RFU, ZNF146 / Fold change vs veh, ZNF146 / RFU, ZNF330 / Fold change vs veh, ZNF330 / RFU, GPN3 / Fold change vs veh, GPN3 / RFU, C9orf123 / Fold change vs veh, C9orf123 / RFU, N4BP2L2 / Fold change vs veh, N4BP2L2 / RFU, ARFIP1 / Fold change vs veh, ARFIP1 / RFU, FAM179B / Fold change vs veh, FAM179B / RFU, BCL10 / Fold change vs veh, BCL10 / RFU, UHRF1BP1L / Fold change vs veh, UHRF1BP1L / RFU, BET1 / Fold change vs veh, BET1 / RFU, CNOT2 / Fold change vs veh, CNOT2 / RFU, ZNF268 / Fold change vs veh, ZNF268 / Fold change vs veh, ZNF507 / RFU, DGCR2 / Fold change vs veh, DGCR2 / RFU, WDSUB1 / Fold change vs veh, WDSUB1 / Fold change vs veh, HSP90B1 /// MIR3652 / RFU, ADSS / Fold change vs veh, ADSS / RFU, GK / Fold change vs veh, GK / RFU, ZNF148 / Fold change vs veh, ZNF148 / RFU, TAF9 / Fold change vs veh, TAF9 / RFU, SLC1A5 / Fold change vs veh, SLC1A5 / RFU, SLMO2 / Fold change vs veh, SLMO2 / RFU, ABCC4 / Fold change vs veh, ABCC4 / RFU, LOC101060439 /// RAP1B / Fold change vs veh, LOC101060439 /// RAP1B / RFU, RFX7 / Fold change vs veh, RFX7 / RFU, GTPBP10 / Fold change vs veh, GTPBP10 / RFU, CNEP1R1 / Fold change vs veh, CNEP1R1 / RFU, BIVM-ERCC5 /// ERCC5 / Fold change vs veh, BIVM-ERCC5 /// ERCC5 / RFU, ILF3 / Fold change vs veh, ILF3 / RFU 11762660_at / Fold change /veh 11762660_at / RFU VCAN (11757783_s_at) / Fold change /veh VCAN (11757783_s_at) / RFU DDX43 (11728927_at) / Fold change /veh DDX43 (11728927_at) / RFU KRT8 (11758188_x_at) / Fold change /veh KRT8 (11758188_x_at) / RFU NKD1 (11759106_at) / Fold change /veh NKD1 (11759106_at) / RFU SRD5A1 (11742802_a_at) / Fold change /veh SRD5A1 (11742802_a_at) / RFU TPSAB1 /// TPSB2 (11721975_s_at) / Fold change /veh TPSAB1 /// TPSB2 (11721975_s_at) / RFU GSTM3 (11746129_a_at) / Fold change /veh GSTM3 (11746129_a_at) / RFU IL23R (11737362_x_at) / Fold change /veh IL23R (11737362_x_at) / RFU TMEM51 (11727254_a_at) / Fold change /veh TMEM51 (11727254_a_at) / RFU PIWIL2 (11732686_x_at) / Fold change /veh PIWIL2 (11732686_x_at) / RFU ORM1 (11744905_x_at) / Fold change /veh ORM1 (11744905_x_at) / RFU CCDC152 (11743942_at) / Fold change /veh CCDC152 (11743942_at) / RFU ECM1 (11717891_a_at) / Fold change /veh ECM1 (11717891_a_at) / RFU IL23R (11748794_a_at) / Fold change /veh IL23R (11748794_a_at) / RFU TNFAIP8L3 (11732012_x_at) / Fold change /veh TNFAIP8L3 (11732012_x_at) / RFU MBOAT4 (11741988_at) / Fold change /veh MBOAT4 (11741988_at) / RFU 11764193_at / Fold change /veh 11764193_at / RFU TMEM53 (11763286_at) / Fold change /veh TMEM53 (11763286_at) / RFU MAGEB2 (11727129_at) / Fold change /veh MAGEB2 (11727129_at) / RFU TMEM200A (11744735_a_at) / Fold change /veh TMEM200A (11744735_a_at) / RFU CCDC152 (11751479_a_at) / Fold change /veh CCDC152 (11751479_a_at) / RFU FAM211A (11726209_a_at) / Fold change /veh FAM211A (11726209_a_at) / RFU RGS16 (11746705_a_at) / Fold change /veh RGS16 (11746705_a_at) / RFU VCAN (11755009_s_at) / Fold change /veh VCAN (11755009_s_at) / RFU RHOB (11743442_s_at) / Fold change /veh RHOB (11743442_s_at) / RFU RGS16 (11720943_a_at) / Fold change /veh RGS16 (11720943_a_at) / RFU RGS16 (11720944_at) / Fold change /veh RGS16 (11720944_at) / RFU, VPS4B / Fold change vs veh, VPS4B / RFU, CREB1 / Fold change vs veh, CREB1 / RFU, DNAJC13 / Fold change vs veh, DNAJC13 / RFU, GNAQ / Fold change vs veh, GNAQ / RFU, CDK5R1 / Fold change vs veh, CDK5R1 / RFU, ZRANB3 / Fold change vs veh, ZRANB3 / RFU, CUL4A / Fold change vs veh, CUL4A / RFU, CCNY / Fold change vs veh, CCNY / RFU, UFL1 / Fold change vs veh, UFL1 / RFU, COG3 / Fold change vs veh, COG3 / RFU, DIAPH2 / Fold change vs veh, DIAPH2 / RFU, SKA2 / Fold change vs veh, SKA2 / RFU, AFF3 / Fold change vs veh, AFF3 / RFU, LMF1 / Fold change vs veh, LMF1 / RFU, IPO11 / Fold change vs veh, IPO11 / RFU, DFFB / Fold change vs veh, DFFB / RFU, FOXP1 / Fold change vs veh, FOXP1 / RFU, CARD8 / Fold change vs veh, CARD8 / RFU, STRN3 / Fold change vs veh, STRN3 / RFU, ADK / Fold change vs veh, ADK / RFU, RASSF2 / Fold change vs veh, RASSF2 / RFU, WIPF1 / Fold change vs veh, WIPF1 / RFU, LARP1B / Fold change vs veh, LARP1B / RFU, RASA1 / Fold change vs veh, RASA1 / RFU, RB1 / Fold change vs veh, RB1 / RFU, PPFIA1 / Fold change vs veh, PPFIA1 / RFU, MAT2A / Fold change vs veh, MAT2A / RFU, CCT5 / Fold change vs veh, CCT5 / RFU, WDR92 / Fold change vs veh, WDR92 / RFU, CUX1 / Fold change vs veh, CUX1 / RFU, TTC7A / Fold change vs veh, TTC7A / RFU, TMEM135 / Fold change vs veh, TMEM135 / RFU, DEPTOR / Fold change vs veh, DEPTOR / RFU, CPM / Fold change vs veh, CPM / RFU, DNAJB6 / Fold change vs veh, DNAJB6 / RFU, CACNA2D3 / Fold change vs veh, CACNA2D3 / RFU, DTX4 / Fold change vs veh, DTX4 / RFU, TFCP2 / Fold change vs veh, TFCP2 / RFU, GMCL1 /// GMCL1P1 / Fold change vs veh, GMCL1 /// GMCL1P1 / RFU, AEBP2 / Fold change vs veh, AEBP2 / RFU, SNHG1 /// SNORD22 /// SNORD25 /// SNORD26 /// SNORD27 /// SNORD28 /// SNORD29 /// SNORD31 / Fold change vs veh, SNHG1 /// SNORD22 /// SNORD25 /// SNORD26 /// SNORD27 /// SNORD28 /// SNORD29 /// SNORD31 / Fold change (Aza/veh), C12orf56 (ProbeSet 11735607_a_at) / Fold change (ACY-1035/veh), C12orf56 (ProbeSet 11735607_a_at) / Fold change (Aza/veh), FGFR1OP (ProbeSet 11751329_s_at) / Fold change (ACY-1035/veh), FGFR1OP (ProbeSet 11751329_s_at) / Fold change (Aza/veh), VPS36 (ProbeSet 11739960_a_at) / Fold change (ACY-1035/veh), VPS36 (ProbeSet 11739960_a_at) / RFU SYPL1 (11715823_x_at) / Fold change /veh SYPL1 (11715823_x_at) / RFU IGFBP7 (11715501_s_at) / Fold change /veh IGFBP7 (11715501_s_at) / RFU REEP3 (11722064_at) / Fold change /veh REEP3 (11722064_at) / RFU IGLL1 (11728026_x_at) / Fold change /veh IGLL1 (11728026_x_at): dose or concentration left out as unconfirmed
Settings: MV-4-11 cells, 48 hours

Nc1ccc(-c2cccs2)cc1NC(=O)c1ccc2c(c1)cc(C1CC1)n2CCN1CCOCC1 [ACY-1035]
RFU MAGEB2 (11727129_at): 5.89 RFU

Reference: PMC5218480 (PLoS ONE, 2017)
